Test results published in paper PMC6309520 (Cell chemical biology, 2018).

Target: T1, ARH3 (ADP-ribosyl hydrolase 3, ADPRHL2) (Homo sapiens, UniProt Q9NX46)
T1 sequence (Q9NX46 1-363): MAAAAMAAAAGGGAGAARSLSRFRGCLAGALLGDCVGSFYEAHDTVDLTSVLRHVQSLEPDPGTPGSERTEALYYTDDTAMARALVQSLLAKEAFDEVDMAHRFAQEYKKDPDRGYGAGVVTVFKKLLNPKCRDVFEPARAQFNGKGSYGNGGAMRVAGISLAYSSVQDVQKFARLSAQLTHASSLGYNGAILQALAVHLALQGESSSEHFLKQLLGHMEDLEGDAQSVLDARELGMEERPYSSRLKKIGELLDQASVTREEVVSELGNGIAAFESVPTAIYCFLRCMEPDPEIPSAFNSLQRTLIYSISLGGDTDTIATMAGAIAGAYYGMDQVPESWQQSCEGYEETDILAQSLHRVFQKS
Assay: Michaelis-Menten kinetics
Type: biochemical

Km: 312 ± 30 µM
SMILES: O=c1cc(C(F)(F)F)c2ccc(O[C@H]3O[C@H](COP(=O)(O)OP(=O)(O)OC[C@H]4O[C@@H](n5cnc6c(=O)[nH]cnc65)[C@H](O)[C@@H]4O)[C@@H](O)[C@H]3O)cc2o1 [compound 12, TFMU-IDPr]
